Read-outs that look alike come from different tables or passages of the source.
Conditions: pressed at 2 tons for 1 minute
Method: ARL X-ray powder diffractometer model X′TRA-030, Peltier detector, round standard aluminum sample holder with round zero background quartz plate (or silicon plate in the case of Form XIV) was used. The cathode is CuKα radiation, λ=1.5418 Å. Scanning parameters: Range: 2-40°2θ, continuous Scan, Rate: 3 deg/min. The accuracy of peak positions is defined as +/−0.2° due to experimental differences like instrumentations, and sample preparations.
The formulation was mixed and pressed to a tablet. The applied pressure was 2 tons for 1 minute.
The formulation is mixed and pressed to a tablet. The applied pressure is 2 tons for 1 minute.

With `COCCCOc1cc(C[C@@H](C[C@H](N)[C@@H](O)C[C@H](C(=O)NCC(C)(C)C(N)=O)C(C)C)C(C)C)ccc1OC.COCCCOc1cc(C[C@@H](C[C@H](N)[C@@H](O)C[C@H](C(=O)NCC(C)(C)C(N)=O)C(C)C)C(C)C)ccc1OC.O=C(O)/C=C/C(=O)O` [amorphous aliskiren hemifumarate, (2S,4S,5S,7S)-N-(2-Carbamoyl-2-methylpropyl)-5-amino-4-hydroxy-2,7-diisopropyl-8-[4-methoxy-3-(3-methoxypropoxy)phenyl]-octanamide hemifumarate] as the compound, how does the “conversion of amorphous form to a crystalline phase in pressed tablet (XRPD)” value (formulation Example 67 (microcrystalline cellulose, PVP, crosspovidone, aerosil 200, Mg stearate)) read?
The value was “No conversion of the amorphous Aliskiren to a crystalline phase”.

And the “conversion of amorphous form to a crystalline phase in pressed tablet (XRPD)” value (formulation Example 68 (lactose monohydrate, PVP, crosspovidone, Mg stearate), written in present tense)?
The value was “No conversion of the amorphous Aliskiren to a crystalline phase”.

Reference: US20120029083A1, “POLYMORPHIC FORMS OF ALISKIREN HEMIFUMARATE AND PROCESS FOR PREPARATION THEREOF” (Teva Pharmaceutical Industries, Ltd., priority 2007, published 2012)
